From patent publication US10202376B2, “Heterocyclic compound” (Takeda Pharmaceutical Company Limited, priority 2014, dated 2019)

test system: NMDA receptor; experiment: not given; settings: continuous intravenous administration; cited from earlier work

Row | Compound | depression symptom accompanying major depression and bipolar disorder
1 | CNC1(c2ccccc2Cl)CCCCC1=O (centres unmarked) [ketamine] | improves depression symptom accompanying major depression and bipolar disorder rapidly and in a sustained manner

biological target: T1, Human GRIN1 and human GRIN2B expressing HEK293 cells (Homo sapiens, UniProt Q13224); experiment: NR2B Ca2+ flux assay; type: cell-based; settings: 10 μM test compound, glutamic acid/glycine stimulated Fluo-4 fluorescence, FLIPR, read-out: inhibitory rate (@10 μM)
T1 construct: host or cells: HEK293
Description: Experimental Example 1 NR2B Ca^2+ Flux Assay
Human GRIN1 and human GRIN2B expressing HEK293 cells were purchased from ChanTest. The cells were cultured in a DMEM/F-12 (COSMO BIO, 10-092-CM) medium added with 10% FBS (fetal bovine serum, AusGene), 100 units/mL penicillin, 100 μg/mL streptomycin, 500 μg/mL neomycin, 100 μg/mL Zeocin, 5 μg/mL Blasticidin at 37° C., 5% CO2. The cells were detached from flask with trypsin the day before the assay, suspended in a seeding medium (DMEM (Invitrogen, 31053) added with 10% FBS, 100 units/mL penicillin, 100 μg/mL streptomycin) at 8×10^5 cells/mL, seeded by 25 μL per well in a 384-well plate (Falcon, 356663) at 20000 cells/well, and cultured overnight in an incubator. On the day of the assay, tetracycline (Wako Pure Chemical Industries, Ltd., 209-16561) was diluted with the seeding medium at 2 μg/mL, added at […] to the plate seeded with the cells, and cultured for 2 hr in an incubator. Thereafter, the medium was removed, and the cells were washed with 50 μL/well assay buffer (137 mM NaCl, 4 mM KCl, 1.8 mM CaCl2, 10 mM HEPES (pH 7.2), 10 mM Glucose, 0.1% BSA). Then, a loading buffer (assay buffer added with 2.5 uM Fluo-4AM, 2 mM Amaranth, 1 mM Tartrazine) was added at 25 μL/well, and loading was performed in the incubator for 30 min, and at room temperature for 15 min. A test compound (25 μL) was added, and the cells were stood for 15 min at room temperature. Using FLIPR (Molecular Devices), 25 μL of an assay buffer containing […], 30 μM glycine was added, and the fluorescence signal was measured every 3 seconds for 5 min. The inhibitory activity was calculated as a relative activity value that inhibits 100% of the cumulative value of the fluorescence value of a well added with a buffer free of glutamic acid, glycine, relative to the cumulative value of the fluorescence value of each well.

T1 sequence (Q13224 27-1484, other chains not shown): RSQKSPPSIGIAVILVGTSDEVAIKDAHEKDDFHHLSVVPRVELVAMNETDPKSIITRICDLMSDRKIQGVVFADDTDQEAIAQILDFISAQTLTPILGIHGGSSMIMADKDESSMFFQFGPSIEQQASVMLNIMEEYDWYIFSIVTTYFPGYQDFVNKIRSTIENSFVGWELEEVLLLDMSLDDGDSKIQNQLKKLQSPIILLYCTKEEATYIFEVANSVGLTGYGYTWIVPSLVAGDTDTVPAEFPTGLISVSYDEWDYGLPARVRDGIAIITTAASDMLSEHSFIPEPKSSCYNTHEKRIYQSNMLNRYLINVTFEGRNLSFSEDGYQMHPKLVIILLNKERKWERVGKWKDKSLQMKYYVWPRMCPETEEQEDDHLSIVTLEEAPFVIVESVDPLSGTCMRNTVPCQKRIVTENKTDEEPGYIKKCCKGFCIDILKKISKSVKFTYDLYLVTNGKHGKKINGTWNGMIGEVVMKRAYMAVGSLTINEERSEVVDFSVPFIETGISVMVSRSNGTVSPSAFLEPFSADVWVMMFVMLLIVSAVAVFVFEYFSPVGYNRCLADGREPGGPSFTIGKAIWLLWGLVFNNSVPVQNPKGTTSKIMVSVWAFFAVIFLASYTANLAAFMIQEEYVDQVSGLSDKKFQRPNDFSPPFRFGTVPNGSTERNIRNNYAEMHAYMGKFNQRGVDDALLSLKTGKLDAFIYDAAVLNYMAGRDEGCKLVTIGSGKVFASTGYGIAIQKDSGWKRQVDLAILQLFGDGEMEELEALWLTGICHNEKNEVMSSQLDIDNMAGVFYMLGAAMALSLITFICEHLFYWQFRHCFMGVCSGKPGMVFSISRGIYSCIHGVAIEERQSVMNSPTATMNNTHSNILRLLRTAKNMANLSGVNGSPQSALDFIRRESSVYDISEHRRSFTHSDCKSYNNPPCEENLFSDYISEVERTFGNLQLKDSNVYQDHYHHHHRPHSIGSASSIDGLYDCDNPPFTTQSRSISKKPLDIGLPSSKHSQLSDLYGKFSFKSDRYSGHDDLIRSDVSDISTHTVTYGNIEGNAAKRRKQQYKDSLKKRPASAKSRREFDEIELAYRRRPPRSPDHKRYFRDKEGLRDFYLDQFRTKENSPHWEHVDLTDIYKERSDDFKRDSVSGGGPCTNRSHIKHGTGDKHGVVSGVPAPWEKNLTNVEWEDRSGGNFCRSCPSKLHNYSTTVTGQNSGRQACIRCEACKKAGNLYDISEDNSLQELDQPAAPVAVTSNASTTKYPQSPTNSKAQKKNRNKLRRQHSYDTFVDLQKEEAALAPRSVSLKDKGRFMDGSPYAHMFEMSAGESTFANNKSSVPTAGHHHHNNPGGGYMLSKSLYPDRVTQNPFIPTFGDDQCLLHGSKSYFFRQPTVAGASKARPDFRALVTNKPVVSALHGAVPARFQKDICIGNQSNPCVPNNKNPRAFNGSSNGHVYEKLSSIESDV

Row | Compound | inhibition at 10 µM
2 | O=C(Cc1cccc2nccn12)Nc1ccc(C(F)(F)F)cc1F [Example 43, N-(2-fluoro-4-(trifluoromethyl)phenyl)-2-(imidazo[1,2-a]pyridin-5-yl)acetamide] | 90%
3 | O=C(Cc1cccc2nccn12)Nc1ccc(C(F)(F)F)nc1 [Example 44, 2-(imidazo[1,2-a]pyridin-5-yl)-N-(6-(trifluoromethyl)pyridin-3-yl)acetamide] | 71%
4 | O=C(Cc1cccc2nccn12)Nc1cnc(C(F)(F)F)nc1 [Example 47, 2-(imidazo[1,2-a]pyridin-5-yl)-N-(2-(trifluoromethyl)-pyrimidin-5-yl)acetamide] | 52%
5 | CN(C(=O)Cc1cccc2nccn12)c1ccc(C(F)(F)F)cc1 [Example 51, 2-(imidazo[1,2-a]pyridin-5-yl)-N-methyl-N-(4-(trifluoromethyl)phenyl)-acetamide] | 56%
6 | CCN(C(=O)Cc1cccc2nccn12)c1ccc(OC(F)(F)F)cc1 [Example 59, N-ethyl-2-(imidazo[1,2-a]pyridin-5-yl)-N-(4-(trifluoromethoxy)-phenyl)acetamide] | 57%
7 | O=C(Cc1cccc2nccn12)Nc1ccc(S(F)(F)(F)(F)F)cc1 [Example 62, 2-(imidazo[1,2-a]pyridin-5-yl)-N-(4-(pentafluoro-λ^6-sulfanyl)phenyl)-acetamide] | 82%
8 | O=C(Cc1cccc2nccn12)Nc1ccc(OC(F)(F)F)nc1 [Example 63, 2-(imidazo[1,2-a]pyridin-5-yl)-N-(6-(trifluoromethoxy)-pyridin-3-yl)acetamide] | 85%
9 | CC(C)(C)c1ccc(NC(=O)Cc2cccc3nccn23)cc1 [Example 64, N-(4-tert-butylphenyl)-2-(imidazo[1,2-a]pyridin-5-yl)acetamide] | 84%
10 | O=C(Cc1cccc2nccn12)Nc1cc2ccccc2s1 [Example 65, N-(1-benzothiophen-2-yl)-2-(imidazo[1,2-a]pyridin-5-yl)acetamide] | 83%
11 | CC(C)c1ccc(NC(=O)Cc2cccc3nccn23)cc1 [Example 66, 2-(imidazo[1,2-a]pyridin-5-yl)-N-(4-isopropylphenyl)acetamide] | 92%
12 | O=C(Cc1cccc2nccn12)Nc1ccc2c(c1)CCO2 [Example 67, N-(2,3-dihydro-1-benzofuran-5-yl)-2-(imidazo[1,2-a]pyridin-5-yl)acetamide] | 78%
13 | O=C(Cc1cccc2nccn12)Nc1ccc(C(F)F)cc1 [Example 69, N-(4-(difluoromethyl)phenyl)-2-(imidazo[1,2-a]pyridin-5-yl)acetamide] | 87%
14 | Cc1cc(CC(=O)Nc2ccc(C(F)(F)F)cc2)n2ccnc2c1 [Example 71, 2-(7-methylimidazo(1,2-a]pyridin-5-yl)-N-(4-(trifluoromethyl)phenyl)-acetamide] | 51%
15 | O=C(Cc1c(F)ccc2nccn12)Nc1ccc(C(F)(F)F)cc1 [Example 73, 2-(6-fluoroimidazo[1,2-a]pyridin-5-yl)-N-(4-(trifluoromethyl)phenyl)-acetamide] | 73%
16 | O=C(Cc1cccc2nccn12)Nc1ccc(OC2CCC2)cc1 [Example 75, N-(4-(cyclobutyloxy)phenyl)-2-(imidazo[1,2-a]pyridin-5-yl)acetamide] | 68%
17 | CCc1ccc2nccn2c1CC(=O)Nc1ccc(OC(F)(F)F)cc1 [Example 78, 2-(6-ethylimidazo[1,2-a]pyridin-5-yl)-N-(4-(trifluoromethoxy)phenyl)acetamide] | 97%
18 | Cc1ccc2nccn2c1CC(=O)Nc1ccc(OC(F)(F)F)cc1 [Example 79, 2-(6-methylimidazo[1,2-a]pyridin-5-yl)-N-(4-(trifluoromethoxy)phenyl)acetamide] | 95%

Row | Compound | inhibition at 10 µM
19 | COc1ccc2nccn2c1CC(=O)Nc1ccc(OC(F)(F)F)cc1 [Example 80, 2-(6-methoxyimidazo[1,2-a]pyridin-5-yl)-N-(4-(trifluoromethoxy)phenyl)acetamide] | 94%
20 | CCc1ccc2nccn2c1CC(=O)Nc1ccc(C(F)(F)F)cc1 [Example 81, 2-(6-ethylimidazo[1,2-a]pyridin-5-yl)-N-(4-(trifluoromethyl)phenyl)-acetamide] | 95%
21 | O=C(Cc1cccc2nccn12)Nc1ccc(I)c(F)c1 [Example 82, N-(3-fluoro-4-iodophenyl)-2-(imidazo[1,2-a]pyridin-5-yl)acetamide] | 94%
22 | O=C(Cc1cccc2nccn12)Nc1ccc(Br)c(F)c1 [Example 83, N-(4-bromo-3-fluorophenyl)-2-(imidazo[1,2-a]pyridin-5-yl)acetamide] | 93%
23 | CC(C(=O)Nc1ccc(OC(F)(F)F)cc1)c1cccc2nccn12 (centres unmarked) [Example 84, 2-(imidazo[1,2-a]pyridin-5-yl)-N-(4-(trifluoromethoxy)-phenyl)propanamide] | 94%
24 | Cc1cn2c(CC(=O)Nc3ccc(OC(F)(F)F)cc3)cccc2n1 [Example 85, 2-(2-methylimidazo[1,2-a]pyridin-5-yl)-N-(4-(trifluoromethoxy)-phenyl)acetamide] | 91%
25 | O=C(Cc1cc(F)cc2nccn12)Nc1ccc(OC(F)(F)F)cc1 [Example 86, 2-(7-fluoroimidazo[1,2-a]pyridin-5-yl)-N-(4-(trifluoromethoxy)-phenyl)acetamide] | 93%
26 | Cc1ccc2nccn2c1CC(=O)Nc1ccc(C(F)(F)F)cc1 [Example 87, 2-(6-methylimidazo[1,2-a]pyridin-5-yl)-N-(4-(trifluoromethyl)phenyl)-acetamide] | 93%
27 | O=C(Cc1cccc2nccn12)Nc1ccc(Br)cc1 [Example 88, N-(4-bromophenyl)-2-(imidazo[1,2-a]pyridin-5-yl)acetamide] | 91%
28 | COc1ccc2nccn2c1CC(=O)Nc1ccc(C(F)(F)F)cc1 [Example 89, 2-(6-methoxyimidazo[1,2-a]pyridin-5-yl)-N-(4-(trifluoromethyl)phenyl)-acetamide] | 92%
29 | O=C(Cc1cc(F)cc2nccn12)Nc1ccc(C(F)(F)F)cc1 [Example 90, 2-(7-fluoroimidazo[1,2-a]pyridin-5-yl)-N-(4-(trifluoromethyl)phenyl)-acetamide] | 88%
30 | O=C(Cc1c(Cl)ccc2nccn12)Nc1ccc(OC(F)(F)F)cc1 [Example 91, 2-(6-chloroimidazo[1,2-a]pyridin-5-yl)-N-(4-(trifluoromethoxy)-phenyl)acetamide] | 91%
31 | O=C(Cc1cccc2nccn12)Nc1ccc(OC(F)(F)F)cn1 [Example 92, 2-(imidazo[1,2-a]pyridin-5-yl)-N-(5-(trifluoromethoxy)-pyridin-2-yl)acetamide] | 87%
32 | CC(C(=O)Nc1ccc(C(F)(F)F)cc1)c1cccc2nccn12 (centres unmarked) [Example 93, 2-(imidazo[1,2-a]pyridin-5-yl)-N-(4-(trifluoromethyl)phenyl)-propanamide] | 89%
33 | O=C(Cc1ccc(F)c2nccn12)Nc1ccc(OC(F)(F)F)cc1 [Example 94, 2-(8-fluoroimidazo[1,2-a]pyridin-5-yl)-N-(4-(trifluoromethoxy)-phenyl)acetamide] | 85%
34 | CCc1ccc(NC(=O)Cc2cccc3nccn23)nc1 [Example 95, N-(5-ethylpyridin-2-yl)-2-(imidazo[1,2-a]pyridin-5-yl)acetamide] | 76%

biological target: T2, NMDA receptor containing the NR2B subunit (Homo sapiens, UniProt Q05586+Q13224); experiment: not given; settings: in vivo; cited from earlier work
T2 sequence (Q13224 27-1484, other chains not shown): as above

Row | Compound | pain sense threshold
35 | CC(C(O)c1ccc(O)cc1)N1CCC(Cc2ccccc2)CC1 (centres unmarked) [Ifenprodil] | pain sense threshold increases

biological target: NMDA receptor containing the NR2B subunit (Rattus norvegicus, UniProt P35439+Q00960); experiment: not given; settings: rodents; cited from earlier work
Sequence (Q00960 27-1482, other chains not shown): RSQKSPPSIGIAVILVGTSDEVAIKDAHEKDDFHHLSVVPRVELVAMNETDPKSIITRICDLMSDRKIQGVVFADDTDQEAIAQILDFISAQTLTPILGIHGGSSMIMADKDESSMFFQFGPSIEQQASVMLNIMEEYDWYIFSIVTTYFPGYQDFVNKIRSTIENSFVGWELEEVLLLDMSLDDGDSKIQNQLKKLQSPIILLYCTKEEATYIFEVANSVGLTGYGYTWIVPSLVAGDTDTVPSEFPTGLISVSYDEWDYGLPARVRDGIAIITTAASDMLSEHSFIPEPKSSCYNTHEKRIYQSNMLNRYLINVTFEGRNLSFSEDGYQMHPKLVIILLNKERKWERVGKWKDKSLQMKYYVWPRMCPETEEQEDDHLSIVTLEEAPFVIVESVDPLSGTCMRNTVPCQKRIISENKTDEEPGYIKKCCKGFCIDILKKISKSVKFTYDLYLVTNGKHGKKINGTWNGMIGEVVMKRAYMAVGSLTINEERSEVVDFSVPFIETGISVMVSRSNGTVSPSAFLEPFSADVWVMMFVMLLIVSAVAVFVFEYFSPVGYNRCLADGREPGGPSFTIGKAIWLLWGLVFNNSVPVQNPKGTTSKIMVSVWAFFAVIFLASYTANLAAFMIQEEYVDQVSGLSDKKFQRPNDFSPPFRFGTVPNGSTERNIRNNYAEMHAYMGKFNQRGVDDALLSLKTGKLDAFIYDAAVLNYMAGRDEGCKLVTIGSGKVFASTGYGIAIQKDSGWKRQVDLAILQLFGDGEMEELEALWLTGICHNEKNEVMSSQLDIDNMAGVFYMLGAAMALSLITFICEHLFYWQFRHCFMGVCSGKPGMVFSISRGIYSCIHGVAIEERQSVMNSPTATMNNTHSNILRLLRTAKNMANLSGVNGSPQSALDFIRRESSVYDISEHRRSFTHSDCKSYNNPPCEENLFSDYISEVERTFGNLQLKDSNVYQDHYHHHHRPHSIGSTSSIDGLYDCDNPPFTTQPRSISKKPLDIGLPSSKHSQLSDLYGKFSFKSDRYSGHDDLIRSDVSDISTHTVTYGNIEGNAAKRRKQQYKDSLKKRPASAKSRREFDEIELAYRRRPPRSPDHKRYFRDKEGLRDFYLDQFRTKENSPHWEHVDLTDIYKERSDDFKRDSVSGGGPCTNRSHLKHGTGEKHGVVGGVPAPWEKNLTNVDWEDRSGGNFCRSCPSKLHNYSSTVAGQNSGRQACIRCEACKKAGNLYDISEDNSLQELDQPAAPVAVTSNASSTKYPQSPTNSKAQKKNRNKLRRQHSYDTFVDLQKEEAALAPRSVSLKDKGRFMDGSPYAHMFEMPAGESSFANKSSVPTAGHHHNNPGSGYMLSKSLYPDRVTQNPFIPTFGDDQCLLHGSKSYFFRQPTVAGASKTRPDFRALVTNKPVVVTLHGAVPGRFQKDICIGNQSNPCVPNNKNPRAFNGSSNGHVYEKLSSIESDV

Row | Compound | number of occurrence and depth of cortical spreading depression
36 | C[C@@H]([C@@H](O)c1ccc(O)cc1)N1CCC(O)(c2ccccc2)CC1 [CP-101, 606] | suppress the number of occurrence and the depth of cortical spreading depression
37 | C[C@@H](CN1CCC(Cc2ccccc2)CC1)[C@@H](O)c1ccc(O)cc1 [Ro25-6981] | suppress the number of occurrence and the depth of cortical spreading depression

biological target: T2, NMDA receptor containing the NR2B subunit; experiment: not given; settings: continuous intravenous administration; cited from earlier work

Row | Compound | treatment resistant-depression symptom
38 | C[C@@H]([C@@H](O)c1ccc(O)cc1)N1CCC(O)(c2ccccc2)CC1 [CP-101, 606] | significantly improves treatment resistant-depression symptom
